One sequence from patent US10774112B2, “Biomimetic peptide and biodegradable delivery platform for the treatment of angiogenesis- and lymphangiogenesis-dependent diseases” (THE JOHNS HOPKINS UNIVERSITY, priority 2013, dated 2020) can be followed below.

The test system of one data set is lymphangiogenesis. As to the kind of experiment: Lymphangiogenesis in vivo (LYVE-1 staining). To be noted: FIG. 11.
Data set [1] can be described thus: Accumulation in tumor and organs after systemic intravenous injection. It counts as in vivo. Particulars: systemically intravenously injected; FIG. 31.
The test system of data set [2] is triple-negative breast cancer cell line SUM149. As to the kind of experiment: Proliferation assay (WST-1), SUM149. Particulars: in vitro; FIG. 7. It counts as cell-based. As for the experimental part:
(§1) A colorimetric based proliferation assay using WST-1 (Roche, 11644807001) proliferation reagent was carried out using HREC cells, HUVEC cells, and the breast cancer cells MDA-MB-231, MCF-7, and SUM149. 2000 cells/well were plated in 96-well plates and allowed to adhere overnight. On the following day, the media was exchanged with fully supplemented media containing peptides or equivalent DMSO vehicle for the controls. Three days later, the media containing the peptides was replaced with serum-free EBM-2 media containing WST-1 reagent and the plates were incubated for four hours as per the manufacturer's recommendations. Changes in color, due to the formazan dye resulted from the cleavage of the tetrazolium salt WST-1 by the mitochondrial succinate-tetrazolium reductase, were read on a Victor V fluorescence plate reader (Perkin Elmer, Mass.) by measuring the absorbance at 450 nm. Dose response curves of percent live cells (in comparison to untreated cells, but incubated in complete media with 0.2% DMSO) were created. Assays were performed in at least two independent replicates and each replicate was performed using three experimental triplicates.

Data set [3] has as its system lymphatic endothelial cell (LEC). As to the kind of experiment: LEC tube formation assay. Particulars: FIG. 5. The format is cell-based.
Data set [4] relates to human retinal endothelial cells (HREC). Briefly: Proliferation assay (WST-1), HREC. It counts as cell-based. Particulars: FIG. 2. As for the experimental part:
as §1

The test system of another data set is HGF signaling. Briefly: HGF signaling in MDA-MB-231 cells. Particulars: FIG. 8. The format is cell-based, human.
Data set [5] has as its system hepatocyte growth factor (HGF) signaling. Briefly: HGF signaling in vitro in LEC. The format is cell-based. To be noted: FIG. 6.
For another data set, the system named is neovascularization. As to the kind of experiment: Neovascularization in a rabbit model. It counts as in vivo. Particulars: day 34 following intravitreal injection into rabbit eyes; FIG. 26.
In data set [6] the test system is insulin growth factor 1 (IGF1) signaling. As to the kind of experiment: IGF1 signaling in vitro in LEC. It counts as cell-based. Particulars: FIG. 6.
Data set [7] relates to choroidal neovascularization. As to the kind of experiment: Laser induced choroidal neovascularization (CNV) model. The format is in vivo, mice. The protocol: Mouse Model of Choroidal Neovascularization (CNV).
Laser photocoagulation-induced rupture of Bruch's membrane was used to generate CNV. Briefly, 4-5 week old female C57BL/6J mice were anesthetized with xylazine hydrochloride (10 mg/kg) and ketamine hydrochloride (50 mg/kg) and the pupils were dilated with 1% tropicamide (Alcon Labs, Inc., Fort Worth, Tex., USA). Three burns of 532-nm diode laser photocoagulation (75 μm spot size, 0.1 s duration, 120 mW) were delivered to each retina using the slit lamp delivery system of an OcuLight GL Photocoagulator (Index, Mountain View, Calif., USA) and a hand-held cover slide as a contact lens. Burns were performed in the 9, 12 and 3 o'clock positions of the posterior pole of the retina. Production of a bubble at the time of laser photocoagulation, which indicates rupture of Bruch's membrane, is an important factor in obtaining CNV, so only burns in which a bubble was produced were included in the study. Treatments were begun seven days after laser photocoagulation and included intravitreous injections of 0.1% of SP2043 (SEQ ID NO: 1) (1 μg in a volume of 1 μL), 1% ([…] in a volume of 1 μL of SP2043 (SEQ ID NO: 1)) or vehicle under a dissecting microscope with a Harvard Pump Microinjection System (Harvard Apparatus, Holliston, Mass.) and pulled glass micropipettes. Some mice were euthanized for baseline measurement. Fourteen days after laser, the remaining mice were used to measure the amount of CNV at Bruch's membrane rupture sites. Two weeks after rupture of Bruch's membrane, mice were anesthetized and perfused with fluorescein-labeled dextran (2×10^6 average mol wt, Sigma-Aldrich, St. Louis, Mo., USA) and choroidal flat mounts were prepared as described previously. Briefly, the eyes were removed, fixed for 1 h in 10% phosphate-buffered formalin, and the cornea and lens were removed. […] Flat mounts were examined by fluorescence microscopy using an Axioskop microscope (Zeiss, Thornwood, N.Y., USA) and images were digitized using a 3 CCD color video camera (IK-TU40A, Toshiba, Tokyo, Japan) and a frame grabber. […]

Data set [8] concerns insulin growth factor 1 (IGF1) signaling. Briefly: IGF1 signaling in vitro in MEC. It counts as cell-based. To be noted: FIG. 6.
The subject of data set [9] is human umbilical vein endothelial cells (HUVEC). As to the kind of experiment: Migration assay (RT-CIM), HUVEC. Particulars: FIG. 1. The format is cell-based. The protocol: The inhibitory potential of the peptides was measured using a real time migration assay system based on electrical impedance (RT-CIM, ACEA Biosciences, CA). CIM 16 well plates (Roche, 05665817001) are composed of a top and bottom chamber separated by a microporous (8 μm) polycarbonate membrane. The membrane was coated with fibronectin (20 μg/mL), and 45,000 cells/well in serum free media with or without peptides were added to the top compartment. Media with chemoattractant (i.e., fully supplemented EBM-2) was added to the bottom compartment of the chamber and the plate was incubated at 37° C. for 20 hours. The sensors integrated on the bottom side of the membrane monitor and continuously record changes in impedance as the cells move through the membrane. The RT-CIM technology allows for easy quantification of cell migration by monitoring the cell index derived from the measured impedances. Assays were performed in at least two independent replicates and each replicate was performed using two experimental duplicates. Breast cancer cells MDA-MB-231 are not suitable for the RT-CIM type experiments due to their thin elongated phenotype, thus the inhibition of migration was investigated using a wound healing type assay. This assay was performed using the Oris Pro Migration assay (Platypus Technologies, CMA 1.101). […]

Data set [10] concerns microvascular endothelial cell (MEC). Briefly: MEC tube formation assay. It counts as cell-based. Particulars: 25 μM peptide; FIG. 3 C-D.
Data set [11] has as its system estrogen receptor positive cell line MCF-7. Briefly: Proliferation assay (WST-1), MCF-7. The format is cell-based. Particulars: in vitro; FIG. 7. The protocol: as §1

For the sequence “LRRFSTAPFAFIDINDVINF (Artificial sequence based on human Collagen Type IV protein) [SP2043]”, the “lymphangiogenesis as seen by LYVE-1 staining” value in the data set with lymphangiogenesis is “inhibited”. Moreover, the “accumulation in tumor and other organs” value in data set [1] was “accumulated in tumor as well as other organs”. For the same sequence, the “proliferation of SUM149” value in data set [2] was “inhibit”. In addition, the LEC tube formation result in data set [3] is given as “inhibit”. Besides, the “proliferation of HREC” value in data set [4] is recorded as “inhibit”. Also, the “HGF signaling in MDA-MB-231 cells” value in the data set on HGF signaling is “inhibit”. Besides, the “HGF signaling in LEC” value in data set [5] is listed as “inhibit”. Further, in the data set with neovascularization, the “neovascularization in a rabbit model” value is given as “Inhibition”. For the same sequence, the “IGF1 signaling in LEC” value in data set [6] is recorded as “inhibit”. Moreover, the “effect in combination with other anti-angiogenesis agents, such as aflibercept” value in data set [7] (laser-induced choroidal neovascularization model in mice, FIG. 28) is “increased effect”. Further, in data set [7] (mouse, FIGS. 13A-B), the “neovascularization in laser induced CNV model” value is listed as “inhibited” and the “potency in laser induced CNV model compared with aflibercept” value was “more potently than aflibercept”. For the same sequence, the “IGF1 signaling in MEC” value in data set [8] is on record as “inhibit”. Further, the “migration of HUVEC” value in data set [9] is “inhibit”. Also, the MEC tube formation entry in [10] was “inhibit”. For the same sequence, the “proliferation of MCF-7” value in data set [11] is recorded as “inhibit”.
